Assay [1] deals with BxPC-3 human pancreatic cancer cells. Description: MTT cell growth assay, BxPC-3. The class given is cell-based. The following applies: 24 hours. Here is the method: The growth of the cells at 24 hours was determined using the MTT assay, which was carried out according to the manufacturer's protocol (Sigma). BxPC-3 cells were seeded in a 96-well plate and cultured in RPMI 1640 medium supplemented with 10% fetal bovine serum and 1% penicillin/streptomycin, as described above. […] MTT solution (M-0283) in an amount equal to 10% of the culture medium volume was then added to each well and the cells were incubated for 4 hours. The resulting MTT formazan crystals were dissolved by adding MTT Solvent (M-0408) directly to the culture in an amount equal to the original culture volume with gentle stirring and then quantitated by an ELISA Model 680 Microplate Reader (Biorad).
(In general: Formazan colour is commonly taken as a measure of viable cells.)

In the next assay the test system is HT-29 cells. As to the kind of experiment: MTT cell growth assay, HT-29. The class given is cell-based, human. The following applies: at 24 h; read-out: Inhibition of HT-29 cell growth IC50.
The subject of assay [2] is survivin, Bcl-2, c-IAP-1, c-IAP-2, and TRAF-1. Description: Western blot of NF-κB-dependent anti-apoptotic gene products in BxPC-3 cells. The class given is cell-based, human. The following applies: at 8 h. Here is the method:
For Western blotting, the proteins from both cytoplasmic extracts and nuclear extracts were separated by SDS-polyacrylamide gel electrophoresis and transferred onto PVDF membranes (Millipore). The membranes were blocked in 5% nonfat dry milk-TBS-T (20 mM Tris-HCl, pH 7.5, 500 mM NaCl. 0.3% Tween 20) at room temperature (RT) for an hour and probed with anti-annexin 1, c-IAP-1, c-IAP-2, and TRAF-1 (Santa Cruz Biotechnology, Inc. CA), and anti-Bcl-2 antibodies (Cell Signaling Technology), in 5% nonfat dry milk-TBS-T at 4° C. overnight. The blots were washed three times with TBS-T for 5 min each wash and incubated with horseradish peroxidase-conjugated secondary antibody (Santa Cruz) in 5% nonfat dry milk-TBS-T at RT for an hour. After five washes with TBS-T, the blots were developed with the enhanced chemiluminescence system (ECL™ Western Blotting System, Amersham Biosciences) and exposed to x-ray film according to the manufacturer's instructions. Protein loading was normalized using anti-β-actin antibodies (Santa Cruz Biotechnology, Inc).
On the technique in general: Immunoblotting shows a protein as a band on a membrane.

Assay [3] concerns NF-κB p65. Description: Co-immunoprecipitation of annexin 1 with p65, BxPC-3 cells. The class given is cell-based, human. The following applies: 3 h, NO-ASA 20 μM or Dex 4 μM. Here is the method: (§1) The gel shift assays were carried out according to the manufacturer's protocol (Panomics). Nuclear proteins (10 μg) from each sample were mixed with 10 ng biotinylated p65 double-stranded oligonucleotide probes (5′-[…]-3′ and its complement) (SEQ ID NO:9) in the presence of 1 μg Poly(I/C) DNA. The mixture was incubated at room temperature for 30 min. The binding complex was then resolved using a 6% polyacrylamide/glycerol gel in 0.5% Tris-borate-EDTA, transferred onto a nylon membrane, and fixed on the membrane by UV cross-linking The biotin-labeled probe was detected with streptavidin-horseradish peroxidase. Co-immunoprecipitation was performed as follows: about 500 μg of cell extracts were incubated overnight with 5 μg of agarose-conjugated anti-p65 (Santa Cruz Biotechnology) or anti-annexin 1 antibody (Santa Cruz, Calif.). The precipitate was washed five times with washing buffer (Santa Cruz Biotechnology), dissolved in 2× Laemmli buffer, boiled, and separated by SDS-PAGE and detected by Western blot analysis using ECL™ (Amersham Biosciences) as described above. Control experiments were performed by using rabbit IgG for p65 and mouse IgG2b for annexin 1, respectively (Santa Cruz Biotechnology).

Assay [4] has as its system NF-κB p65. As to the kind of experiment: Co-immunoprecipitation of annexin 1 with p65, HT-29 cells. The class given is cell-based, human. The following applies: 3 h, NO-ASA 20 μM or Dex 4 μM. Here is the method: as §1
Assay [5] relates to NF-κB p65. As to the kind of experiment: Confocal microscopy co-localization of annexin 1 and p65, BxPC-3 cells. The class given is cell-based, human. The following applies: 3 h, NO-ASA 20 μM or Dex 4 μM. Here is the method:
BxPC-3 cells were seeded on cover-glasses in a 12-well plate for 24 h. The cells were exposed to 10 or 20 μM NO-ASA or 2 or 4 μM Dex for 3 h, fixed with 4% paraformaldehyde in PBS containing 30 mM sucrose, permeabilized with 0.2% saponin in PBS containing 30 mM sucrose, and blocked with 5% normal goat serum in PBS containing 1% BSA. The cells were incubated with mouse monoclonal IgG2b anti-annexin 1 (Santa Cruz Biotechnology) and rabbit monoclonal IgG anti-p65 (Cell Signaling, MA) at RT for 1 h. After three washes with PBS containing 1% BSA, the cells were incubated with Alexa555 conjugated donkey anti-mouse IgG (Molecular Probes) and Alexa 488 conjugated goat anti-rabbit IgG (Molecular Probes) at RT for an hour. Images were acquired with a Zeiss LSM 510 META NLO Two-Photon Laser Scanning Image Confocal Microscope and the colocalization scores were generated by the Colocalization Macro program. The control experiments were performed using non-specific mouse IgG2b and/or rabbit IgG. Red fluorescence localized annexin 1, green fluorescence localized p65 (NF-κB) and co-localization of the two proteins generated yellow fluorescence.

The subject of another assay is annexin 1. As to the kind of experiment: Annexin 1 levels in small intestine epithelial cells of treated Min and wild-type mice. The class given is in vivo. The following applies: NO-ASA 100 mg/kg or Dex 10 mg/kg daily for 7 days. Here is the method:
(§2) To assess whether these changes occur in vivo, the inventors studied isolated small intestine epithelial cells from Min mice and the corresponding wild type mice C57BL/6J (of which the Min mice are a congenic derivative) treated with NO-ASA 100 mg/kg or Dex 10 mg/kg daily for 7 days. Min (multiple intestinal neoplasia), a mutant allele of the murine APC (adenomatous polyposis coli) locus, encodes a nonsense mutation at codon 850. Heterozygous Min mutants spontaneously develop tumors in the intestine and represent a model of intestinal carcinogenesis (M. Lipkin et al., Ann. N.Y. Acad. Sci. 889:14-19 (1999); A. Moser, H. Pitot, W. Dove, Science 247:322-324 (1990)). The levels of annexin 1 were increased in both Min and wild-type mice treated with either NO-ASA or Dex (FIG. 7A and FIG. 8A). The induction of annexin 1 by NO-ASA or Dex was accompanied by the inhibition of NF-κB activity (FIGS. 7B and 8B).
(§3) A mouse model of multiple intestinal neoplasia, the Min mice, and the congenic parent wild-type mice were used to test the in vivo action of NO-ASA in the induction of annexin 1. Both wild-type and Min mice were treated for 7 days with vehicle or NO-ASA 100 mg/kg. After 7 days of treatment, the mice were sacrificed and the epithelial cells were evaluated as in Example 6 by confocal microscopy.

The next assay has as its system NF-κB. Description: NF-κB activity in treated Min and wild-type mice. The format is in vivo. The following applies: NO-ASA 100 mg/kg or Dex 10 mg/kg daily for 7 days. Here is the method: as §2, §3
A further assay concerns Bcl-xL. Description: NF-κB dependent gene (Bcl-xL) expression in epithelial cells of treated mice. The following applies: wild-type and Min mice. The format is in vivo. Here is the method:
as §2

The test system of assay [6] is NF-κB p65. Description: Co-localization of annexin 1 and p65 in intestinal epithelial cells of treated mice. The format is in vivo. The following applies: NO-ASA 100 mg/kg, 7 days. Here is the method: as §3
The next assay has as its system pancreatic cancer. The following applies: animal tumor model; cited from earlier work.

For nitric oxide-donating aspirin [NO-ASA], the “growth of BxPC-3 cells” value in assay [1] is “inhibits the growth”. In addition, the IC50 (as a rule, the concentration at which inhibition is half-maximal) with HT-29 cells stood at 18.8 µM. Moreover, in assay [2], the “expression of NF-κB-dependent anti-apoptotic genes survivin, Bcl-2, c-IAP-1, c-IAP-2, TRAF-1” value is given as “suppressed the expression”. For the same substance, the “co-immunoprecipitation of annexin 1 with p65” value in the assay on NF-κB p65 [3] and with NF-κB p65 [4] was “co-immunoprecipitated with p65” each time. Also, the “co-localization of annexin 1 and p65” value in the assay with NF-κB p65 [5] was “co-localize most strongly in the nucleus”. Further, the “levels of annexin 1” value with annexin 1 (Min mice) and with annexin 1 (wild-type mice) was “increased” throughout. Also, the NF-κB activity entry in the assay with NF-κB (Min mice) and in the assay on NF-κB (wild-type mice) was “inhibited NF-κB activity” throughout. Further, in the assay with Bcl-xL, the “NF-κB dependent gene expression (Bcl-xL)” value is given as “inhibited NF-κB dependent gene expression”. The “colocalization of annexin 1 and p65 in intestinal cells” value is recorded as “greatly enhanced” with NF-κB p65 [6] (Min mice) and “modest but significant colocalization” in the assay with NF-κB p65 [6] (wild type mice). Further, the “prevention of pancreatic cancer” value in the assay with pancreatic cancer is recorded as “almost completely prevents pancreatic cancer”.

Source of the values: patent US8691764B2, “Inhibitors of NF-κB activity” (The Research Foundation for the State University of New York, priority 2007, dated 2014).
